# Results published in US20260022142A1, “MACROCYCLIC IMMUNOMODULATORS” (Bristol-Myers Squibb Company, priority 2022, published 2026).
# Bridge positions count the residues as written; N and C are the ends. Square brackets hold non-standard residues; d marks the D form. Peptide text beside a SMILES is read from it. * marks the point of attachment. ξ: configuration not given here. Phe(4-CH2CH2COOH) = N[C@@H](Cc1ccc(CCC(=O)O)cc1)C(=O)O; Bip = N[C@@H](Cc1ccc(-c2ccccc2)cc1)C(=O)O; Phe(3-Me) = Cc1cccc(C[C@H](N)C(=O)O)c1; Val(3-F) = CC(C)(F)[C@H](N)C(=O)O; hArg = N=C(N)NCCCC[C@H](N)C(=O)O; Cha = N[C@@H](CC1CCCCC1)C(=O)O; Cit = NC(=O)NCCC[C@H](N)C(=O)O; Thr(3ξ) = CC(O)[C@H](N)C(=O)O; hCys = N[C@@H](CCS)C(=O)O; Carboxymethyl = O=C(O)C*; Orn = NCCC[C@H](N)C(=O)O; Aun = NCCCCCCCCCCC(=O)O; Dab = NCC[C@H](N)C(=O)O; Dap = NC[C@H](N)C(=O)O; AEEA = NCCOCCOCC(=O)O; Piv = CC(C)(C)C(=O)*
# Molecular target: T1, PD-1/PD-L1 interaction (PE-labeled human PD-L1-Ig binding to Jurkat cell line over-expressing human PD-1) (Homo sapiens, UniProt Q15116)
# T1 construct: expressed in transfected cells; host or cells: Jurkat
# Assay: Jurkat-PD-1 Cell Binding High-Content Screening Assay (CBA)
# Format: cell-based
# Details: Jurkat cell line over-expressing human PD-1; PE-labeled PD-L1-Ig 20 nM final; read-out: Jurkat hPD1-PDL1 IC50
# Summary of the method: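 First, compound is added to PD-1-expressing Jurkat cells in serum-containing DMEM and left 2 h at 37° C. Next, PE-conjugated PD-L1-Ig is introduced at 20 nM final concentration for 1 hour. Finally, cells are fixed in 4% paraformaldehyde with Hoechst 33342, washed and imaged.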
# T1 sequence (Q15116 25-288): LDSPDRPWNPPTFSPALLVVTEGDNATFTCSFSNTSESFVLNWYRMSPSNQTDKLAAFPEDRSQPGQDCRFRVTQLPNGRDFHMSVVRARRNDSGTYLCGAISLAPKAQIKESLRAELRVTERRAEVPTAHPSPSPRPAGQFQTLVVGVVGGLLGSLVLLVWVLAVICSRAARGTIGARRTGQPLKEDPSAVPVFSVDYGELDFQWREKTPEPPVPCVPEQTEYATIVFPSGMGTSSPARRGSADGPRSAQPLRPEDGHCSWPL
row,Structure (SMILES),IC50 [nM]
1,Cc1cccc(C[C@@H]2NC(=O)[C@H](CC(=O)O)NC(=O)[C@H](Cc3ccc(OCC(=O)O)cc3)NC(=O)[C@H](CCCCNC(=N)N)NC(=O)CSC[C@@H](C(=O)NCCOCCOCC(=O)N[C@@H](CCN)C(=O)NCCCCCCCCCCC(=O)O)NC(=O)[C@H](CCCN)NC(=O)[C@H](C(C)C)NC(=O)[C@H](CC3CCCCC3)NC(=O)[C@H](CN)NC(=O)[C@@H](CC(C)C)NC(=O)[C@H](CCCN)NC(=O)[C@H](C(C)C)NC(=O)[C@H](Cc3ccc(-c4ccccc4)cc3)NC(=O)[C@H](C(C)C)NC2=O)c1 [Compound 3249] ({CH2CO}-[hArg]Y(Carboxymethyl)D[Phe(3-Me)]V[Bip]V[Orn][dL][Dap][Cha]V[Orn]C[AEEA][Dab][Aun]-OH; thioether N-14),25.6
2,Cc1cccc(C[C@@H]2NC(=O)[C@H](CC(=O)O)NC(=O)[C@H](Cc3ccc(OCC(=O)O)cc3)NC(=O)[C@H](CCCNC(=N)N)NC(=O)CSC[C@@H](C(=O)N[C@@H](CCN)C(=O)NCCCCCCCCCCC(=O)O)NC(=O)[C@H](C(C)O)NC(=O)[C@H](CO)NC(=O)[C@H](CC3CCCCC3)NC(=O)[C@H](CCN)NC(=O)[C@@H](CC(C)C)NC(=O)[C@H](CCCN)NC(=O)[C@H](Cc3ccc(OCC(=O)O)cc3)NC(=O)[C@H](Cc3ccc(-c4ccccc4)cc3)NC(=O)[C@H](Cc3ccc(CCC(=O)O)cc3)NC2=O)c1 (stereo partly drawn) [Compound 3506] ({CH2CO}-RY(Carboxymethyl)D[Phe(3-Me)][Phe(4-CH2CH2COOH)][Bip]Y(Carboxymethyl)[Orn][dL][Dab][Cha]S[Thr(3ξ)]C[Dab][Aun]-OH; thioether N-14),15.1
3,Cc1cccc(C[C@@H]2NC(=O)[C@H](CC(=O)O)NC(=O)[C@H](Cc3ccc(OCC(=O)O)cc3)NC(=O)[C@H](CCNC(=O)C(C)(C)C)NC(=O)CSC[C@@H](C(=O)N[C@@H](CCN)C(=O)NCCCCCCCCCCC(=O)O)NC(=O)[C@H](CCC(N)=O)NC(=O)[C@H](C(C)(C)F)NC(=O)[C@H](CC3CCCCC3)NC(=O)[C@H](CCN)NC(=O)[C@@H](CC(C)C)NC(=O)[C@H](CCCN)NC(=O)[C@H](Cc3ccc(OCC(=O)O)cc3)NC(=O)[C@H](Cc3ccc(-c4ccccc4)cc3)NC(=O)[C@H](Cc3ccc(OCC(=O)O)cc3)NC2=O)c1 [Compound 2156] ({CH2CO}-[Dab](Piv)Y(Carboxymethyl)D[Phe(3-Me)]Y(Carboxymethyl)[Bip]Y(Carboxymethyl)[Orn][dL][Dab][Cha][Val(3-F)]QC[Dab][Aun]-OH; thioether N-14),9.8

# Other lines, results leading:
row,IC50 [nM],Structure (SMILES)
1,173,Cc1cccc(C[C@@H]2NC(=O)[C@H](CC(=O)O)NC(=O)[C@H](Cc3ccccc3)NC(=O)[C@H](CC(N)=O)NC(=O)CSCC[C@@H](C(=O)N[C@@H](CCCN)C(=O)NCCCCCCCCCCC(=O)O)NC(=O)[C@H](CCC(=O)O)NC(=O)[C@H](C(C)C)NC(=O)[C@H](CC(C)C)NC(=O)[C@H](CCN)NC(=O)[C@@H](CC(C)C)NC(=O)[C@H](CCCN)NC(=O)[C@H](CCCNC(N)=O)NC(=O)[C@H](Cc3ccc(-c4ccccc4)cc3)NC(=O)[C@H](C(C)C)NC2=O)c1 [Compound 2775] ({CH2CO}-NFD[Phe(3-Me)]V[Bip][Cit][Orn][dL][Dab]LVE[hCys][Orn][Aun]-OH; thioether N-14)
2,118,CC(C)C[C@@H]1NC(=O)[C@H](Cc2c[nH]c3ccccc23)NC(=O)[C@H](CC(=O)O)NC(=O)[C@H](Cc2ccc(OCC(=O)O)cc2)NC(=O)[C@H](C(C)O)NC(=O)CSC[C@@H](C(=O)N[C@@H](CCN)C(=O)NCCCCCCCCCCC(=O)O)NC(=O)[C@H](CCN)NC(=O)[C@H](C(C)O)NC(=O)[C@H](CC2CCCCC2)NC(=O)[C@H](CCN)NC(=O)[C@@H](CC(C)C)NC(=O)[C@H](CCCN)NC(=O)[C@H](Cc2ccc(O)cc2)NC(=O)[C@H](Cc2ccc(-c3ccccc3)cc2)NC1=O (stereo partly drawn) [Compound 3683] ({CH2CO}-[Thr(3ξ)]Y(Carboxymethyl)DWL[Bip]Y[Orn][dL][Dab][Cha][Thr(3ξ)][Dab]C[Dab][Aun]-OH; thioether N-14)
